The target of one data set is CYP2D6 (Homo sapiens, UniProt P10635). As to the kind of experiment: Single point CYP450 inhibition test. Type of data set: in vitro ADME. Particulars: for inhibition at 10 µM: human, CYP2D6 % inhibition.
The next data set addresses CYP3A4 (Homo sapiens, UniProt P08684). As to the kind of experiment: Single point CYP450 inhibition test. The format is in vitro ADME.
A further data set deals with PI3K-C2β (Homo sapiens, UniProt O00750). As to the kind of experiment: Ambit KINOMEscan. The format is binding.
A further data set deals with P110α/P85α (Homo sapiens, UniProt P42336). Put plainly: Ambit KINOMEscan. Type of data set: binding.
A further data set addresses T1, P110δ/P85α (Homo sapiens, UniProt O00329).
T1 sequence (O00329 1-1044): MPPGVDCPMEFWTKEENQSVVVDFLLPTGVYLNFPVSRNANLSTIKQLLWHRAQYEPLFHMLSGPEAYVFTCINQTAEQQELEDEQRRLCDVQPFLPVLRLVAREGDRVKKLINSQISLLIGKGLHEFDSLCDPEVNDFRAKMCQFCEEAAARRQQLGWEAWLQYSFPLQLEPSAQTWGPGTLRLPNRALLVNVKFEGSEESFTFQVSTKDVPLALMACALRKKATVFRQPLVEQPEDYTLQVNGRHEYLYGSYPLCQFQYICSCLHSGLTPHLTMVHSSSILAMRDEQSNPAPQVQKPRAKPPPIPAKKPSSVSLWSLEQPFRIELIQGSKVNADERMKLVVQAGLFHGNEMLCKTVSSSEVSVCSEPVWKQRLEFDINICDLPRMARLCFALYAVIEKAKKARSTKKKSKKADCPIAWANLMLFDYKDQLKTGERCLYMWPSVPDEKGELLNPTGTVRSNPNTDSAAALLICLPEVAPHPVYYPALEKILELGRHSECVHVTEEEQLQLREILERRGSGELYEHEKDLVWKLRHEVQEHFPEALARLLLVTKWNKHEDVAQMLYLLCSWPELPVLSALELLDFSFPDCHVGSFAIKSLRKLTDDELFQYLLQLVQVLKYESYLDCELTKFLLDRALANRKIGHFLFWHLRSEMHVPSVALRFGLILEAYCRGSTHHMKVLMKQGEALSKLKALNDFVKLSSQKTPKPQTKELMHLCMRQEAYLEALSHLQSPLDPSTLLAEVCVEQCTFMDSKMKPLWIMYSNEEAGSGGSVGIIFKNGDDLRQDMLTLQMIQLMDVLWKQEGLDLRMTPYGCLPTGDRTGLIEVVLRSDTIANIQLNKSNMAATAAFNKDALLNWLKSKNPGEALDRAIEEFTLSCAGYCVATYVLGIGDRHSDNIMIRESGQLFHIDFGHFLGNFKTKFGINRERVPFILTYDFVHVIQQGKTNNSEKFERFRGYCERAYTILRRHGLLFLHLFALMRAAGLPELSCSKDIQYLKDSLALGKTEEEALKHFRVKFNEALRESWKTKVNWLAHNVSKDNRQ
As to the kind of experiment: Ambit KINOMEscan. Type of data set: binding.

A further data set deals with P110γ (Homo sapiens, UniProt P48736). Put plainly: Ambit KINOMEscan. Type of data set: binding.
For the next data set, the target named is mTOR (Homo sapiens, UniProt P42345). Put plainly: Ambit KINOMEscan. The format is binding.
In data set [1] the test system is downstream targets of mTOR, S6K, and Akt. As to the kind of experiment: In vivo pharmacodynamic study. Particulars: liver and lung tissues, after 6h, 20 mg/kg.
A further data set concerns 450 kinases. Particulars: 450 kinases profiled by KINOMEscan; cited from earlier work.
The test system of another data set is U87-MG mouse xenograft. Particulars: cited from earlier work.

CYP2D6, sequence (P10635 whole entry): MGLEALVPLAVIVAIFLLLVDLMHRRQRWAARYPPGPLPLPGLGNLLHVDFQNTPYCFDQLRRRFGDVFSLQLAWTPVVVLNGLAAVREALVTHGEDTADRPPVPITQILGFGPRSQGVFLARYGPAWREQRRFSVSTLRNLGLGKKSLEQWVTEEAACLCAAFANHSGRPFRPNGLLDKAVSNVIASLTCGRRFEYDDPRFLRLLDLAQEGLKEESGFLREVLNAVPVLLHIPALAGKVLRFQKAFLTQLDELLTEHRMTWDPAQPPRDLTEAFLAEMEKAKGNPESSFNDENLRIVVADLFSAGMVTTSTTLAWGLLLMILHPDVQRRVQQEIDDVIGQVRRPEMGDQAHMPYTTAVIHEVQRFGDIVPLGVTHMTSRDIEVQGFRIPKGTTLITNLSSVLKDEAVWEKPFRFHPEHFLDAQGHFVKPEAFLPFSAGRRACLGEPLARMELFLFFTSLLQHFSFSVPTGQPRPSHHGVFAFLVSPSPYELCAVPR
P110α/P85α, sequence (P42336 whole entry): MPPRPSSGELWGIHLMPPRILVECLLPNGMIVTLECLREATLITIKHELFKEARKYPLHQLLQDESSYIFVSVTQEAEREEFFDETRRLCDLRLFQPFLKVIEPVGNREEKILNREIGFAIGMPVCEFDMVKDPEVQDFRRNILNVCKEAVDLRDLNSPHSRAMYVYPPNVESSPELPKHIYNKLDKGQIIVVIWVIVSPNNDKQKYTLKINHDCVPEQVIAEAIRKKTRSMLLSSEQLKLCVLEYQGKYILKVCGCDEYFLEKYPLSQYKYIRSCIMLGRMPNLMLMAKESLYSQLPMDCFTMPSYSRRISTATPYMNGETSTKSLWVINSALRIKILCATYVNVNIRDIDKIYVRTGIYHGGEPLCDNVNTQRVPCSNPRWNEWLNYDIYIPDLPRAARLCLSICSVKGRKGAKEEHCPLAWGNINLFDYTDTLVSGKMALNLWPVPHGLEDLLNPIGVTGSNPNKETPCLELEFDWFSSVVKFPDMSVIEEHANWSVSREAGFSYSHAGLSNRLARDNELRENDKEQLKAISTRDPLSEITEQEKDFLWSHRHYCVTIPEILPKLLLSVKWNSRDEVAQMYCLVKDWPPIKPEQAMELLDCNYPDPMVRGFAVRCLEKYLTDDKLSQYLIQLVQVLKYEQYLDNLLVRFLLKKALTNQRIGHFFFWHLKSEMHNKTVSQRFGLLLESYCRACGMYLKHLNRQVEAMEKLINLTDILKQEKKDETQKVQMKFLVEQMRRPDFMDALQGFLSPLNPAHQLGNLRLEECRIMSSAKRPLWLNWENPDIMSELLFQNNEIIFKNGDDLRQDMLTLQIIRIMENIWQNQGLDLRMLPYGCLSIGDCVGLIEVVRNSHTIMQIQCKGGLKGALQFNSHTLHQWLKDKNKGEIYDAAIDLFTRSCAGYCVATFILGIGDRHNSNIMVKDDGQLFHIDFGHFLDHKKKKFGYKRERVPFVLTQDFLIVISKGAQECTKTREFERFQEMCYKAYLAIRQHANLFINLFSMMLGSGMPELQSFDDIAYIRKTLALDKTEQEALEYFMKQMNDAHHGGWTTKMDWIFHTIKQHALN
PI3K-C2β, sequence (O00750 whole entry): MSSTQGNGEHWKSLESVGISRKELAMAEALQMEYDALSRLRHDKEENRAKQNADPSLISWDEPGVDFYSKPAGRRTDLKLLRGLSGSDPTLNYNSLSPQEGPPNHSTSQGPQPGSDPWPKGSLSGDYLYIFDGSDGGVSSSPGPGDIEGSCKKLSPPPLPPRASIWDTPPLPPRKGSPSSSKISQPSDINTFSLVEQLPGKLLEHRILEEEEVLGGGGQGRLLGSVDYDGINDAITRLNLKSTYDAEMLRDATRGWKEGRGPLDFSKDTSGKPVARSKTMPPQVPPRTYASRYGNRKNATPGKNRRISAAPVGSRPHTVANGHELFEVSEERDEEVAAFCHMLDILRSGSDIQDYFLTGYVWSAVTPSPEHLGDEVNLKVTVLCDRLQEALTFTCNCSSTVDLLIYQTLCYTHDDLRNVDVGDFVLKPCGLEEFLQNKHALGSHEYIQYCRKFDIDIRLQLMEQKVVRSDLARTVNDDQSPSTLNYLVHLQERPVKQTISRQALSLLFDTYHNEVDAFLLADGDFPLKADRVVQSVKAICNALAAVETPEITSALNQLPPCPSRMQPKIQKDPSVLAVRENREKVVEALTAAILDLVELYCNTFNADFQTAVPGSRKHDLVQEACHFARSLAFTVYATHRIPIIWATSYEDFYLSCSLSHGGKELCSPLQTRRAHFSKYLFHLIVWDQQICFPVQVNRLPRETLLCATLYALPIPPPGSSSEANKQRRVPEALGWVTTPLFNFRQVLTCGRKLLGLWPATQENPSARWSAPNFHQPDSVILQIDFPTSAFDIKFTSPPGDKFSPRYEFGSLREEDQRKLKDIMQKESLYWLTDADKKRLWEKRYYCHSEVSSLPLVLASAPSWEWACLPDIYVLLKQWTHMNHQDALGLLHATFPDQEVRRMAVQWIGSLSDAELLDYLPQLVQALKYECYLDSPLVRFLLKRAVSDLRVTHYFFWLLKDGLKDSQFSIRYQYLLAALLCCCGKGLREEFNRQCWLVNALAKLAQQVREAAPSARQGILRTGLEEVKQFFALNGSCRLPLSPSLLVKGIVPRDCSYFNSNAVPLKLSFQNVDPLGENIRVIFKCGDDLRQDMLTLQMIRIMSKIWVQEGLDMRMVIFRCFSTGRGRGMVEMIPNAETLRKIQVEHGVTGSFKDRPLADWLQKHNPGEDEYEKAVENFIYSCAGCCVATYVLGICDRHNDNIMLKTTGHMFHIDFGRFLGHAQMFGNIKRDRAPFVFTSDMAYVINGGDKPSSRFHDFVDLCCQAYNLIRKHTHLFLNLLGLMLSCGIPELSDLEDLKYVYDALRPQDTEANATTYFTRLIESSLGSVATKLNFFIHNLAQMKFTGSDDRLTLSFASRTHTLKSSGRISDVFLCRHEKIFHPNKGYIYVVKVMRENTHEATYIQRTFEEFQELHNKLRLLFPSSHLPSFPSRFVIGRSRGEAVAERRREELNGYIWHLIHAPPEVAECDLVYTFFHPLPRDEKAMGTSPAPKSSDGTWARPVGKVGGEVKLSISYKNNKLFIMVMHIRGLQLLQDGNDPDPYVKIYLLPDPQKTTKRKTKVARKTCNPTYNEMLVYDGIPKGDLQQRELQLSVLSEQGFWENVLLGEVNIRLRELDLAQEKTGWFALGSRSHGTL
P110γ, sequence (P48736 whole entry): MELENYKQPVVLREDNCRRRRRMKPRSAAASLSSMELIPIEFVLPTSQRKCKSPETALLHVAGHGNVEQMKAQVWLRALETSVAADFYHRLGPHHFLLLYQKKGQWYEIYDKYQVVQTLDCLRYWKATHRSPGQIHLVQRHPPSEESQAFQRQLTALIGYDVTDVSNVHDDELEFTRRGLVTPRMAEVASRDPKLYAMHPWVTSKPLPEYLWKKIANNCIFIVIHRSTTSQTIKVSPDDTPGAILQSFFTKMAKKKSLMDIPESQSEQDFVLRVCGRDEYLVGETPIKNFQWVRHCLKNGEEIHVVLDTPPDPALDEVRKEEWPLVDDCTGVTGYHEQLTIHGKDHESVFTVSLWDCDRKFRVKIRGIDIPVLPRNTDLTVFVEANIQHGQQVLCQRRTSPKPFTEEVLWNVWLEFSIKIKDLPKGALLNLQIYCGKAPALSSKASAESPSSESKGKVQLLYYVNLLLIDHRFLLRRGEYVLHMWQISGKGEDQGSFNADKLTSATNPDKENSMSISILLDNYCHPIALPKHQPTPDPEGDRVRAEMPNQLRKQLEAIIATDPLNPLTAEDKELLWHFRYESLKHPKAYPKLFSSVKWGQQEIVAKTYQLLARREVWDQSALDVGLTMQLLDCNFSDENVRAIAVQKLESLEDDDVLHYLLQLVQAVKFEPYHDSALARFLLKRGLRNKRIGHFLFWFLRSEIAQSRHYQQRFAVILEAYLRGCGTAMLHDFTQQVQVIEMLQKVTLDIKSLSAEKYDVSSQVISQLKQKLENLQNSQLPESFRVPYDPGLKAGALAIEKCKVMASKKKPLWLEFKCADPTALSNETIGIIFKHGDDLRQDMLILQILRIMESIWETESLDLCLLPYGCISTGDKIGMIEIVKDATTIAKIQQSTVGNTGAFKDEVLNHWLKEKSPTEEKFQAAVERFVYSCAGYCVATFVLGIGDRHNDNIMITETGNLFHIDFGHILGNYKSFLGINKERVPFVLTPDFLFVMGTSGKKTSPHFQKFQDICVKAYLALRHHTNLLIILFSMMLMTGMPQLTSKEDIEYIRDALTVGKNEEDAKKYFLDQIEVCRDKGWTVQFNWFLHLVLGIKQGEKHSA
CYP3A4, sequence (P08684 whole entry): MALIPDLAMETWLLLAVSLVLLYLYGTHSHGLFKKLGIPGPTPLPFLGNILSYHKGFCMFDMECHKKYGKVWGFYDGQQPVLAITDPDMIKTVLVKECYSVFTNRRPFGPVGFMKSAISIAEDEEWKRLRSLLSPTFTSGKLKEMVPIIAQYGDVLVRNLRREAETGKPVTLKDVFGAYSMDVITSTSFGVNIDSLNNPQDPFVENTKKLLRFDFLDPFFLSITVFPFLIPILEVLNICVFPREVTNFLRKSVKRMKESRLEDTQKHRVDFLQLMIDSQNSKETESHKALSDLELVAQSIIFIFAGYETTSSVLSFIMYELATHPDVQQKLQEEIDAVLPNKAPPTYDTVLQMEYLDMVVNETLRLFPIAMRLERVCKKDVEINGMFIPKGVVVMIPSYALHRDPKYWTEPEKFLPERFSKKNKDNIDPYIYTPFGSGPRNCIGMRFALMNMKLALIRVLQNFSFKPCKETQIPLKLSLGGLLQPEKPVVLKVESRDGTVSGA

A word on the inhibition: it is the share of the control response that was lost under treatment. A high value points to a response far below the control. On to `Cc1cc(-n2c(=O)ccc3cnc4ccc(-c5cnc6ccccc6c5)cc4c32)ccc1-c1ccc(C(=O)NC2CCN(C)CC2)cc1` [Compound 19], for which the inhibition at 10 µM against CYP2D6 is 24%.
As to `CN1CCC(NC(=O)c2ccc(-c3ccc(-n4c(=O)ccc5cnc6ccc(-c7cnc8ccccc8c7)cc6c54)cc3C(F)(F)F)cc2)CC1` [Compound 10], the inhibition at 10 µM on CYP3A4 was over 60%; on CYP2D6, over 50%. For the same compound, the CYP2D6 % inhibition at CYP2D6 (10 µM) came out at 51%. The Ambit score at PI3K-C2β was found to be 0.65%; on P110α/P85α, 0.1%; on P110δ/P85α it was 2%; at P110γ, 0.05%; on mTOR it was 0%. In addition, in [1], the “blocked phosphorylation of S6K (T389)” value was 80–90%. Moreover, the “blocked phosphorylation of pAkt (S473)” value in data set [1] was 80–90%.
Take `CCC(=O)N1CCN(c2ccc(-n3c(=O)ccc4cnc5ccc(-c6cnc7ccccc7c6)cc5c43)cc2C(F)(F)F)CC1` [Torin1]: the protein kinase off-targets entry with 450 kinases is “no other significant protein kinase off-targets”. For the same compound, the anti-tumor activity result with U87-MG mouse xenograft was “exhibited anti-tumor activity”.

These data come from publication PMC3929239 (Bioorganic & medicinal chemistry letters, 2011).
